{"source": "patent US20260000781A1", "about": "“FC CONJUGATES INCLUDING AN INHIBITOR OF CD73 AND USES THEREOF” (Cidara Therapeutics, Inc., priority 2022, published 2026)", "key": {"[1]": {"target": "T1, CD73 expressed on the MDA-MB-231 cell surface (Homo sapiens, UniProt P21589)", "T1 construct": "host or cells: MDA-MB-231", "T1 sequence (P21589 27-549)": "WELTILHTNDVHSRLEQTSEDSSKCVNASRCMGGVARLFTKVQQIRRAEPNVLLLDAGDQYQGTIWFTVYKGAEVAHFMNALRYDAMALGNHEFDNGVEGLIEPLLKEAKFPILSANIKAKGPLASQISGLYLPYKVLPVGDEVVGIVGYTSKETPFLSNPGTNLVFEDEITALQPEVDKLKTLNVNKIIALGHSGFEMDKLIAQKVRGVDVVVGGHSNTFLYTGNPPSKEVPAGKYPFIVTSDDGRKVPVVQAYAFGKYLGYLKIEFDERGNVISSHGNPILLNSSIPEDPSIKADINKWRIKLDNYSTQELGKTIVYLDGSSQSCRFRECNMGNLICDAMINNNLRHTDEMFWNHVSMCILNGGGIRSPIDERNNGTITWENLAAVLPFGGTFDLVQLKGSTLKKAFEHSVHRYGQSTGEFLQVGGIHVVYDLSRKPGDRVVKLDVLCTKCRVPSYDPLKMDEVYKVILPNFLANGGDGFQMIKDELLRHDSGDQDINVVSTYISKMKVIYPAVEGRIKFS", "assay": "Cell-based CD73 enzyme inhibition assay on MDA-MB-231 cells", "details": "AMP 100 μM, 3 h (FIG. 2)", "description": "The cell-based CD73 enzyme inhibition assay was performed essentially as described above for the cell-free assay, with the following modifications.\n(§1) The cell-based CD73 enzyme inhibition assay was performed essentially as described above for the cell-free assay, with the following modifications. MDA-MB-231 human breast adenocarcinoma cells (ATCC CRM-HTB-26) were seeded at 2×10^4 cells/well/100 μL into 96-well tissue culture-treated plates (Corning Costar cat no. 3596) and incubated overnight at 37° C., 5% CO2. […] The 96-well plate was then centrifuged at 125×g for 5 min at room temperature and ATP (25 μL/well, 100 μM final) was combined with supernatant (25 μL/well) in a white opaque 96-well plate (Corning Costar cat no. 3912).\nas §1, with “3912). […] Percent CD73 inhibition (y-axis) versus log10 inhibitor concentration (x-axis) were plotted using GraphPad Prism Version 8 and IC50's calculated using nonlinear regression analysis (Sigmoidal, 4 PL).” for “3912).”"}, "CD73": {"target": "T2, CD73 (Homo sapiens, UniProt P21589)", "T2 sequence (P21589 27-549)": "T1 sequence (P21589 27-549)", "assay": "Cell-free CD73 enzyme inhibition assay", "type": "biochemical", "details": "recombinant human CD73 0.1 ng/μL, AMP 100 μM, 25 min at 37° C. (FIG. 1A, 1B)", "description": "The cell-free CD73 enzyme inhibition assay was performed in a 96-well plate format using the CD73 Inhibitor Screening Assay Kit in accordance with the manufacturer's instructions (cat no. 72055, BPS Bioscience). […] Colorimetric detection reagent was then added (100 μL/well) and the free phosphate from the CD73 reaction was measured by reading the absorbance at 630 nm using the EnSpire multimode plate reader (PerkinElmer). Wells without test inhibitor (CD73 positive control) were included on each plate. Blank wells without test inhibitor and CD73 were subtracted from all wells. Percent CD73 inhibition versus inhibitor concentration was plotted using GraphPad Prism Version 8 and IC50's calculated using nonlinear regression analysis (Sigmoidal, 4 PL).\nThe cell-free CD73 enzyme inhibition assay was performed in a 96-well plate format using the CD73 Inhibitor Screening Assay Kit in accordance with the manufacturer's instructions (BPS Bioscience cat no. 72055). […] Colorimetric detection reagent was then added (100 μL/well) and the free phosphate from the CD73 reaction was measured by reading the absorbance at 630 nm using the EnSpire multimode plate reader (PerkinElmer). Wells without test inhibitor (CD73 positive control) were included on each plate. Blank wells without test inhibitor and CD73 were subtracted from all wells. Percent CD73 inhibition (y-axis) versus log10 inhibitor concentration (x-axis) was plotted using GraphPad Prism Version 8 and IC50's calculated using nonlinear regression analysis (Sigmoidal, 4 PL)."}, "[2]": {"target": "T3, surface-expressed CD73 on human T cells (Homo sapiens, UniProt P21589)", "T3 construct": "72400 (T cells); host or cells: human PBMCs / human T cells", "T3 sequence (P21589 27-549)": "T1 sequence (P21589 27-549)", "assay": "Human immune cell-based CD73 enzyme inhibition assay (T cells)", "details": "2.5-3 h", "description": "(§2) The human immune cell-based CD73 enzyme inhibition assay was performed essentially as described above For the cell-free assay, with the following modifications. Human PBMCs (cat. no. HUMAN-PBMC-U-211140) or T cells (cat. no. 72400, Stem Cell Tech) were seeded at 8×10^3 cells/well into 96-well tissue culture-treated plates. […] Percent CD73 inhibition versus concentration were plotted using GraphPad Prism Version 8 and IC50's calculated using nonlinear regression analysis ([inhibitor]vs normalized response)."}, "[3]": {"target": "T4, surface-expressed CD73 on human PBMCs (Homo sapiens, UniProt P21589)", "T4 construct": "72400 (T cells); host or cells: human PBMCs / human T cells", "T4 sequence (P21589 27-549)": "T1 sequence (P21589 27-549)", "assay": "Human immune cell-based CD73 enzyme inhibition assay (PBMCs)", "details": "AMP 300 μM, 2.5-3 h", "description": "as §2"}}, "data": [{"smiles": "C#CCOCCOCCOCCOCCOC1CCC2(CC1)CN(c1nc(Cl)nc3c1cnn3[C@@H]1O[C@H](COCP(=O)(O)O)[C@@H](O)[C@H]1O)C2", "note": "[Int-258]", "values": [{"measurement": "IC50", "setting": "[1]", "value": 41.4, "unit": "nM"}, {"measurement": "IC50", "setting": "CD73", "value": 26.1, "unit": "nM"}]}, {"smiles": "O=C(CCOCCOCCOCCOCCn1cc(COCCOCCOCCOCCOC2CCC3(CC2)CN(c2nc(Cl)nc4c2cnn4[C@@H]2O[C@H](COCP(=O)(O)O)[C@@H](O)[C@H]2O)C3)nn1)Oc1c(F)cc(F)cc1F", "note": "[Int-259]", "values": [{"measurement": "IC50", "setting": "[2]; T Cells - Experiment 1, AMP 300 μM", "value": 1.47, "unit": "nM"}, {"measurement": "IC50", "setting": "[2]; T Cells - Experiment 2, AMP 300 μM", "value": 0.12, "unit": "nM"}, {"measurement": "IC50", "setting": "[3]", "value": 2.87, "unit": "nM"}]}]}
